System: 966289-007-R4-J1-PDC complex spheroid viability
Experiment: Anticancer human tumor 966289-007-R4-J1-PDC patient-derived pancreatic adenocarcinoma cell line growth inhibition [GQUAD]
Conditions: for IC50: curve of first compound; for viability, T/C: stronger effect = lower value
Procedure, shortened: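 Tumor cells were grown as complex spheroids with HUVEC endothelial cells and mesenchymal stem cells as stroma. G-quadruplex stabilizers were combined with targeted agents over half-log dilutions from near the clinical Cmax, or from 10 microM.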

[1] = second compound 0.0316 µM, first compound 0.0316 µM
[2] = second compound 0.0316 µM, first compound 0.1 µM
[3] = second compound 0.0316 µM, first compound 0.316 µM
[4] = second compound 0.0316 µM, first compound 1 µM
[5] = second compound 0.0316 µM, first compound 3.16 µM
[6] = second compound 0.0316 µM, first compound 10 µM
[7] = second compound 0.1 µM, first compound 0.0316 µM
[8] = second compound 0.1 µM, first compound 0.1 µM
[9] = second compound 0.1 µM, first compound 0.316 µM
[10] = second compound 0.1 µM, first compound 1 µM
[11] = second compound 0.1 µM, first compound 3.16 µM
[12] = second compound 0.1 µM, first compound 10 µM
[13] = second compound 0.316 µM, first compound 0.0316 µM
[14] = second compound 0.316 µM, first compound 0.1 µM
[15] = second compound 0.316 µM, first compound 0.316 µM
[16] = second compound 0.316 µM, first compound 1 µM
[17] = second compound 0.316 µM, first compound 3.16 µM
[18] = second compound 0.316 µM, first compound 10 µM
[19] = second compound 1 µM, first compound 0.0316 µM
[20] = second compound 1 µM, first compound 0.1 µM
[21] = second compound 1 µM, first compound 0.316 µM
[22] = second compound 1 µM, first compound 1 µM
[23] = second compound 1 µM, first compound 3.16 µM
[24] = second compound 1 µM, first compound 10 µM
[25] = second compound 3.16 µM, first compound 0.0316 µM
[26] = second compound 3.16 µM, first compound 0.1 µM
[27] = second compound 3.16 µM, first compound 0.316 µM
[28] = second compound 3.16 µM, first compound 1 µM
[29] = second compound 3.16 µM, first compound 3.16 µM
[30] = second compound 3.16 µM, first compound 10 µM
[31] = second compound 10 µM, first compound 0.0316 µM
[32] = second compound 10 µM, first compound 0.1 µM
[33] = second compound 10 µM, first compound 0.316 µM
[34] = second compound 10 µM, first compound 1 µM
[35] = second compound 10 µM, first compound 3.16 µM
[36] = second compound 10 µM, first compound 10 µM
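Note: spheroids exposed to the agents for seven days before readout.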
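Throughout, for viability, T/C: percent viability relative to DMSO vehicle control wells taken as 100%.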

With `COc1cc(C2c3cc4c(cc3C(OC3OC5COC(C)OC5C(O)C3O)C3COC(=O)C23)OCO4)cc(OC)c1O` (stereo unspecified) + Cc1cnc(CNC(=O)c2c(=O)c3ccc(N4CCCN(C)CC4)nc3n3c2sc2ccccc23)cn1 the IC50 (second compound 0.0316 µM) was 110 nM, the IC50 (second compound 0.1 µM) was less than 31.6 nM and the IC50 (second compound 0.316 µM) was less than 31.6 nM. It also gave an IC50 (second compound 1 µM) of less than 31.6 nM, an IC50 (second compound 3.16 µM) of less than 31.6 nM and an IC50 (second compound 10 µM) of less than 31.6 nM. The viability, T/C [1] was 88%, the viability, T/C [2] was 53.8% and the viability, T/C [3] was 10.1%. The viability, T/C [4] was 2.94%, the viability, T/C [5] was 2.18% and the viability, T/C [6] was 0.59%. For the same compound, the viability, T/C [7] was 29.7%, the viability, T/C [8] was 19.7% and the viability, T/C [9] was 8.71%. The viability, T/C [10] was 3.16%, the viability, T/C [11] was 1.36% and the viability, T/C [12] was 0.71%. It also gave a viability, T/C [13] of 10.3%, a viability, T/C [14] of 9.3% and a viability, T/C [15] of 5.22%. For the same compound, the viability, T/C [16] was 3.25%, the viability, T/C [17] was 1.25% and the viability, T/C [18] was 1.38%. The viability, T/C [19] was 6.49%, the viability, T/C [20] was 6.05% and the viability, T/C [21] was 4.38%. The viability, T/C [22] was 2.66%, the viability, T/C [23] was 1.27% and the viability, T/C [24] was 0.48%. For the same compound, the viability, T/C [25] was 4.76%, the viability, T/C [26] was 4.96% and the viability, T/C [27] was 2.85%. The viability, T/C [28] was 0.6%, the viability, T/C [29] was 0.46% and the viability, T/C [30] was 0.09%. It also gave a viability, T/C [31] of 0.03%, a viability, T/C [32] of 0.07% and a viability, T/C [33] of 0.09%. For the same compound, the viability, T/C [34] was 0.06%, the viability, T/C [35] was 0.12% and the viability, T/C [36] was 0.12%.

Work on `COc1cccc2c1C(=O)c1c(O)c3c(c(O)c1C2=O)CC(O)(C(=O)CO)CC3OC1CC(N)C(O)C(C)O1` (stereo unspecified) + Cc1cnc(CNC(=O)c2c(=O)c3ccc(N4CCCN(C)CC4)nc3n3c2sc2ccccc23)cn1 yielded an IC50 (second compound 0.0316 µM) of less than 31.6 nM, an IC50 (second compound 0.1 µM) of less than 31.6 nM and an IC50 (second compound 0.316 µM) of less than 31.6 nM. It also gave an IC50 (second compound 1 µM) of less than 31.6 nM, an IC50 (second compound 3.16 µM) of less than 31.6 nM and an IC50 (second compound 10 µM) of less than 31.6 nM. It also gave a viability, T/C [1] of 43.6%, a viability, T/C [2] of 6.62% and a viability, T/C [3] of 2.17%. The viability, T/C [4] was 0.54%, the viability, T/C [5] was 0.2% and the viability, T/C [6] was 0.39%. The viability, T/C [7] was 14.1%, the viability, T/C [8] was 7.19% and the viability, T/C [9] was 2.36%. The viability, T/C [10] was 0.41%, the viability, T/C [11] was 0.24% and the viability, T/C [12] was 0.54%. For the same compound, the viability, T/C [13] was 8.14%, the viability, T/C [14] was 4.76% and the viability, T/C [15] was 1.77%. It also gave a viability, T/C [16] of 0.41%, a viability, T/C [17] of 0.17% and a viability, T/C [18] of 0.26%. The viability, T/C [19] was 4.98%, the viability, T/C [20] was 3.35% and the viability, T/C [21] was 1.44%. It also gave a viability, T/C [22] of 0.09%, a viability, T/C [23] of 0.13% and a viability, T/C [24] of 0.32%. It also gave a viability, T/C [25] of 3.68%, a viability, T/C [26] of 1.92% and a viability, T/C [27] of 0.11%. It also gave a viability, T/C [28] of 0.05%, a viability, T/C [29] of 0.1% and a viability, T/C [30] of 0.1%. For the same compound, the viability, T/C [31] was 0.03%, the viability, T/C [32] was 0.08% and the viability, T/C [33] was 0.1%. The viability, T/C [34] was 0.07%, the viability, T/C [35] was 0.16% and the viability, T/C [36] was 0.24%.

Work on `Nc1ccn(C2OC(CO)C(O)C2(F)F)c(=O)n1` (stereo unspecified) + Cc1cnc(CNC(=O)c2c(=O)c3ccc(N4CCCN(C)CC4)nc3n3c2sc2ccccc23)cn1 yielded an IC50 (second compound 0.0316 µM) of less than 31.6 nM, an IC50 (second compound 0.1 µM) of less than 31.6 nM and an IC50 (second compound 0.316 µM) of less than 31.6 nM. The IC50 (second compound 1 µM) was less than 31.6 nM, the IC50 (second compound 3.16 µM) was less than 31.6 nM and the IC50 (second compound 10 µM) was less than 31.6 nM. The viability, T/C [1] was 2.51%, the viability, T/C [2] was 0.72% and the viability, T/C [3] was 0.68%. The viability, T/C [4] was 0.69%, the viability, T/C [5] was 0.58% and the viability, T/C [6] was 0.61%. For the same compound, the viability, T/C [7] was 4.19%, the viability, T/C [8] was 0.89% and the viability, T/C [9] was 0.87%. For the same compound, the viability, T/C [10] was 0.9%, the viability, T/C [11] was 0.77% and the viability, T/C [12] was 0.88%. The viability, T/C [13] was 5.63%, the viability, T/C [14] was 1.42% and the viability, T/C [15] was 1.15%. It also gave a viability, T/C [16] of 0.95%, a viability, T/C [17] of 1.35% and a viability, T/C [18] of 1.02%. It also gave a viability, T/C [19] of 3.58%, a viability, T/C [20] of 1.01% and a viability, T/C [21] of 0.82%. It also gave a viability, T/C [22] of 0.79%, a viability, T/C [23] of 0.88% and a viability, T/C [24] of 0.78%. It also gave a viability, T/C [25] of 2.86%, a viability, T/C [26] of 0.11% and a viability, T/C [27] of 0.1%. It also gave a viability, T/C [28] of 0.06%, a viability, T/C [29] of 0.32% and a viability, T/C [30] of 0.67%. For the same compound, the viability, T/C [31] was 0.04%, the viability, T/C [32] was 0.07% and the viability, T/C [33] was 0.09%. It also gave a viability, T/C [34] of 0.07%, a viability, T/C [35] of 0.92% and a viability, T/C [36] of 0.6%.

— PubChem BioAssay AID2060488 (Molecular Pharmacology Branch, DTP, NCI, 2025)
